Where a SMILES comes first, the peptide text is derived from it. Bridges are numbered along the chain shown (N, C = ends). [ ]: non-standard residue; d: D form. hPhe(3-Cl-4-CF3) = N[C@@H](CCc1ccc(C(F)(F)F)c(Cl)c1)C(=O)O; NPrPhe(4-CF3) = CCCN[C@@H](Cc1ccc(C(F)(F)F)cc1)C(=O)O; NMeGly(cPent) = CN[C@H](C(=O)O)C1CCCC1; Pro(4,4-F2) = O=C(O)[C@@H]1CC(F)(F)CN1; Hyp = O=C(O)[C@@H]1C[C@@H](O)CN1; NMeL = CN[C@@H](CC(C)C)C(=O)O; Ac5c = NC1(C(=O)O)CCCC1; Ac4c = NC1(C(=O)O)CCC1; NEtG = CCNCC(=O)O; Sar = CNCC(=O)O
Tests used:
[1] = target: GDP-bound NRAS wild-type protein (Homo sapiens, UniProt P01111); assay: Binding to NRAS by surface plasmon resonance (SPR), Single Cycle Kinetics; conditions: KD ratio NRAS/KRAS, SPR
Chain of GDP-bound NRAS wild-type protein (P01111 whole entry): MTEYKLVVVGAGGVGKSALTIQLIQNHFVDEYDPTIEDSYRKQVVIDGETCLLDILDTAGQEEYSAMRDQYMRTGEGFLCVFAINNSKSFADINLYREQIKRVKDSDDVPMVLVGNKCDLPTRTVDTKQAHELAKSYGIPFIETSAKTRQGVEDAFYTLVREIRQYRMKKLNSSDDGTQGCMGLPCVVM

[2] = target: GDP-bound HRAS wild-type protein (Homo sapiens, UniProt P01112); assay: Binding to HRAS by surface plasmon resonance (SPR), Single Cycle Kinetics; conditions: KD ratio HRAS/KRAS, SPR
Chain of GDP-bound HRAS wild-type protein (P01112 whole entry): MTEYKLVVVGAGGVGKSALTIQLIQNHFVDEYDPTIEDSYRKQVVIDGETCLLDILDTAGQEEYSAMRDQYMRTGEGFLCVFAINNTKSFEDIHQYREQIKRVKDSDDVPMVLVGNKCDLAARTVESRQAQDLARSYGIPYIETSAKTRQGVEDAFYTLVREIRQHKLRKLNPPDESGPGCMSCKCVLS

Row | Structure (SMILES) | NRAS/KRAS (ratio of KD for GDP-bound NRAS wild-type to KD for KRAS) [1] | HRAS/KRAS (ratio of KD for GDP-bound HRAS wild-type to KD for KRAS) [2]
1 | CCCN1C(=O)CN(C)C(=O)CN(C)C(=O)[C@H]([C@@H](C)CC)NC(=O)[C@H](CC(C)C)N(C)C(=O)C[C@@H](C(=O)N(C)C)NC(=O)[C@H](C2CCCC2)N(C)C(=O)C2(CCC2)NC(=O)[C@@H]2CCCN2C(=O)[C@H](CCc2ccc(C(F)(F)F)c(Cl)c2)NC(=O)CN(C)C(=O)[C@@H]1Cc1ccc(C(F)(F)F)cc1 [PP0356] ([NMeL]I[Sar][Sar][NPrPhe(4-CF3)][Sar][hPhe(3-Cl-4-CF3)]P[Ac4c][NMeGly(cPent)]D-NMe2; lactam N-11) | B (a compound having 3 or more and less than 10 is denoted as B) | B (a compound having 3 or more and less than 10 is denoted as B)
2 | CCCN1C(=O)CN(C)C(=O)CN(C)C(=O)[C@H]([C@@H](C)CC)NC(=O)[C@H](CC(C)C)N(C)C(=O)C[C@@H](C(=O)N(C)C)NC(=O)[C@H](C2CCCC2)N(C)C(=O)C2(CCCC2)NC(=O)[C@@H]2CC(F)(F)CN2C(=O)[C@H](CCc2ccc(C(F)(F)F)c(Cl)c2)NC(=O)CN(C)C(=O)[C@@H]1Cc1ccc(C(F)(F)F)cc1 [PP0357] ([NMeL]I[Sar][Sar][NPrPhe(4-CF3)][Sar][hPhe(3-Cl-4-CF3)][Pro(4,4-F2)][Ac5c][NMeGly(cPent)]D-NMe2; lactam N-11) | B (a compound having 3 or more and less than 10 is denoted as B) | B (a compound having 3 or more and less than 10 is denoted as B)
3 | CCCN1C(=O)CN(C)C(=O)CN(C)C(=O)[C@H]([C@@H](C)CC)NC(=O)[C@H](CC(C)C)N(C)C(=O)C[C@@H](C(=O)N(C)C)NC(=O)[C@H](C2CCCC2)N(C)C(=O)C2(CCC2)NC(=O)[C@@H]2CC(F)(F)CN2C(=O)[C@H](CCc2ccc(C(F)(F)F)c(Cl)c2)NC(=O)CN(C)C(=O)[C@@H]1Cc1ccc(C(F)(F)F)cc1 [PP0358] ([NMeL]I[Sar][Sar][NPrPhe(4-CF3)][Sar][hPhe(3-Cl-4-CF3)][Pro(4,4-F2)][Ac4c][NMeGly(cPent)]D-NMe2; lactam N-11) | B (a compound having 3 or more and less than 10 is denoted as B) | C (A compound having a KD ratio of 0.1 or more and less than 3 is denoted as C)
4 | CCCN1C(=O)CN(C)C(=O)CN(C)C(=O)[C@H]([C@@H](C)CC)NC(=O)[C@H](CC(C)C)N(C)C(=O)C[C@@H](C(=O)N(C)C)NC(=O)[C@H](C2CCCC2)N(C)C(=O)C2(CCCC2)NC(=O)[C@@H]2C[C@@H](OCC)CN2C(=O)[C@H](CCc2ccc(C(F)(F)F)c(Cl)c2)NC(=O)CN(C)C(=O)[C@@H]1Cc1ccc(C(F)(F)F)cc1 [PP0359] ([NMeL]I[Sar][Sar][NPrPhe(4-CF3)][Sar][hPhe(3-Cl-4-CF3)][Hyp](Et)[Ac5c][NMeGly(cPent)]D-NMe2; lactam N-11) | B (a compound having 3 or more and less than 10 is denoted as B) | B (a compound having 3 or more and less than 10 is denoted as B)
5 | CCCN1C(=O)CN(C)C(=O)CN(C)C(=O)[C@H]([C@@H](C)CC)NC(=O)[C@H](CC(C)C)N(C)C(=O)C[C@@H](C(=O)N(C)C)NC(=O)[C@H](C2CCCC2)N(C)C(=O)C2(CCC2)NC(=O)[C@@H]2C[C@@H](OCC)CN2C(=O)[C@H](CCc2ccc(C(F)(F)F)c(Cl)c2)NC(=O)CN(C)C(=O)[C@@H]1Cc1ccc(C(F)(F)F)cc1 [PP0360] ([NMeL]I[Sar][Sar][NPrPhe(4-CF3)][Sar][hPhe(3-Cl-4-CF3)][Hyp](Et)[Ac4c][NMeGly(cPent)]D-NMe2; lactam N-11) | B (a compound having 3 or more and less than 10 is denoted as B) | C (A compound having a KD ratio of 0.1 or more and less than 3 is denoted as C)
6 | CCCN1C(=O)CN(C)C(=O)CNC(=O)[C@H]([C@@H](C)CC)NC(=O)[C@H](CC(C)C)N(C)C(=O)C[C@@H](C(=O)N(C)C)NC(=O)[C@H](C2CCCC2)N(C)C(=O)C2(CCCC2)NC(=O)[C@@H]2CCCN2C(=O)[C@H](CCc2ccc(C(F)(F)F)c(Cl)c2)NC(=O)CN(C)C(=O)[C@@H]1Cc1ccc(C(F)(F)F)cc1 [PP0361] ([NMeL]IG[Sar][NPrPhe(4-CF3)][Sar][hPhe(3-Cl-4-CF3)]P[Ac5c][NMeGly(cPent)]D-NMe2; lactam N-11) | B (a compound having 3 or more and less than 10 is denoted as B) | C (A compound having a KD ratio of 0.1 or more and less than 3 is denoted as C)
7 | CCCN1C(=O)CN(C)C(=O)CNC(=O)[C@H]([C@@H](C)CC)NC(=O)[C@H](CC(C)C)N(C)C(=O)C[C@@H](C(=O)N(C)C)NC(=O)[C@H](C2CCCC2)N(C)C(=O)C2(CCC2)NC(=O)[C@@H]2CCCN2C(=O)[C@H](CCc2ccc(C(F)(F)F)c(Cl)c2)NC(=O)CN(C)C(=O)[C@@H]1Cc1ccc(C(F)(F)F)cc1 [PP0362] ([NMeL]IG[Sar][NPrPhe(4-CF3)][Sar][hPhe(3-Cl-4-CF3)]P[Ac4c][NMeGly(cPent)]D-NMe2; lactam N-11) | B (a compound having 3 or more and less than 10 is denoted as B) | B (a compound having 3 or more and less than 10 is denoted as B)
8 | CCCN1C(=O)CN(C)C(=O)CNC(=O)[C@H]([C@@H](C)CC)NC(=O)[C@H](CC(C)C)N(C)C(=O)C[C@@H](C(=O)N(C)C)NC(=O)[C@H](C2CCCC2)N(C)C(=O)C2(CCCC2)NC(=O)[C@@H]2CC(F)(F)CN2C(=O)[C@H](CCc2ccc(C(F)(F)F)c(Cl)c2)NC(=O)CN(C)C(=O)[C@@H]1Cc1ccc(C(F)(F)F)cc1 [PP0363] ([NMeL]IG[Sar][NPrPhe(4-CF3)][Sar][hPhe(3-Cl-4-CF3)][Pro(4,4-F2)][Ac5c][NMeGly(cPent)]D-NMe2; lactam N-11) | B (a compound having 3 or more and less than 10 is denoted as B) | C (A compound having a KD ratio of 0.1 or more and less than 3 is denoted as C)
9 | CCCN1C(=O)CN(C)C(=O)CNC(=O)[C@H]([C@@H](C)CC)NC(=O)[C@H](CC(C)C)N(C)C(=O)C[C@@H](C(=O)N(C)C)NC(=O)[C@H](C2CCCC2)N(C)C(=O)C2(CCC2)NC(=O)[C@@H]2CC(F)(F)CN2C(=O)[C@H](CCc2ccc(C(F)(F)F)c(Cl)c2)NC(=O)CN(C)C(=O)[C@@H]1Cc1ccc(C(F)(F)F)cc1 [PP0364] ([NMeL]IG[Sar][NPrPhe(4-CF3)][Sar][hPhe(3-Cl-4-CF3)][Pro(4,4-F2)][Ac4c][NMeGly(cPent)]D-NMe2; lactam N-11) | B (a compound having 3 or more and less than 10 is denoted as B) | B (a compound having 3 or more and less than 10 is denoted as B)
10 | CCCN1C(=O)CN(C)C(=O)CNC(=O)[C@H]([C@@H](C)CC)NC(=O)[C@H](CC(C)C)N(C)C(=O)C[C@@H](C(=O)N(C)C)NC(=O)[C@H](C2CCCC2)N(C)C(=O)C2(CCCC2)NC(=O)[C@@H]2C[C@@H](OCC)CN2C(=O)[C@H](CCc2ccc(C(F)(F)F)c(Cl)c2)NC(=O)CN(C)C(=O)[C@@H]1Cc1ccc(C(F)(F)F)cc1 [PP0365] ([NMeL]IG[Sar][NPrPhe(4-CF3)][Sar][hPhe(3-Cl-4-CF3)][Hyp](Et)[Ac5c][NMeGly(cPent)]D-NMe2; lactam N-11) | B (a compound having 3 or more and less than 10 is denoted as B) | B (a compound having 3 or more and less than 10 is denoted as B)
11 | CCCN1C(=O)CN(C)C(=O)CNC(=O)[C@H]([C@@H](C)CC)NC(=O)[C@H](CC(C)C)N(C)C(=O)C[C@@H](C(=O)N(C)C)NC(=O)[C@H](C2CCCC2)N(C)C(=O)C2(CCC2)NC(=O)[C@@H]2C[C@@H](OCC)CN2C(=O)[C@H](CCc2ccc(C(F)(F)F)c(Cl)c2)NC(=O)CN(C)C(=O)[C@@H]1Cc1ccc(C(F)(F)F)cc1 [PP0366] ([NMeL]IG[Sar][NPrPhe(4-CF3)][Sar][hPhe(3-Cl-4-CF3)][Hyp](Et)[Ac4c][NMeGly(cPent)]D-NMe2; lactam N-11) | B (a compound having 3 or more and less than 10 is denoted as B) | B (a compound having 3 or more and less than 10 is denoted as B)
12 | CCCN1C(=O)CN(C)C(=O)CN(CC)C(=O)[C@H]([C@@H](C)CC)NC(=O)[C@H](CC(C)C)N(C)C(=O)C[C@@H](C(=O)N(C)C)NC(=O)[C@H](C2CCCC2)N(C)C(=O)C2(CCCC2)NC(=O)[C@@H]2CCCN2C(=O)[C@H](CCc2ccc(C(F)(F)F)c(Cl)c2)NC(=O)CN(C)C(=O)[C@@H]1Cc1ccc(C(F)(F)F)cc1 [PP0367] ([NMeL]I[NEtG][Sar][NPrPhe(4-CF3)][Sar][hPhe(3-Cl-4-CF3)]P[Ac5c][NMeGly(cPent)]D-NMe2; lactam N-11) | B (a compound having 3 or more and less than 10 is denoted as B) | B (a compound having 3 or more and less than 10 is denoted as B)
13 | CCCN1C(=O)CN(C)C(=O)CN(CC)C(=O)[C@H]([C@@H](C)CC)NC(=O)[C@H](CC(C)C)N(C)C(=O)C[C@@H](C(=O)N(C)C)NC(=O)[C@H](C2CCCC2)N(C)C(=O)C2(CCC2)NC(=O)[C@@H]2CCCN2C(=O)[C@H](CCc2ccc(C(F)(F)F)c(Cl)c2)NC(=O)CN(C)C(=O)[C@@H]1Cc1ccc(C(F)(F)F)cc1 [PP0368] ([NMeL]I[NEtG][Sar][NPrPhe(4-CF3)][Sar][hPhe(3-Cl-4-CF3)]P[Ac4c][NMeGly(cPent)]D-NMe2; lactam N-11) | B (a compound having 3 or more and less than 10 is denoted as B) | B (a compound having 3 or more and less than 10 is denoted as B)
